In patent publication US9340555B2, “Compounds as tyrosine kinase modulators” (Allergan, Inc., priority 2009, dated 2016):

How the values were obtained:
[1] = biological target: VEGFR2 (Homo sapiens (Human), UniProt P35968); assay: VEGF Stimulated Ca++ Signal In Vitro (Cellular VEGFR2, FLIPR); assay type: cell-based; settings: HUVEC, VEGF stimulation (5 ng/mL), intracellular calcium
[2] = biological target: PDGFRβ (Homo sapiens (Human), UniProt P09619); assay: Enzymic PDGFRβ; assay type: biochemical
[3] = system: Rabbit Eye VEGF Permeability; assay: Rabbit Eye VEGF Permeability Model; assay type: in vivo
Description: Rabbit Eye VEGF Permeability Model
Assay used was detailed by Jeffrey Edelman, etc in Exp. Eye. Res. 80 (2005), Pg 249-258.

[4] = biological target: human VEGF receptor (VEGFR-2) (Homo sapiens (Human), UniProt P35968); assay: VEGFR2 Kinase Assay (Enzymic VEGFR2); assay type: biochemical; settings: His-VEGFR-2 cytoplasmic domain, 3.6 µM ATP
[5] = biological target: VEGFR1 (Homo sapiens (Human), UniProt P17948); assay: Enzymic VEGFR1; assay type: biochemical
VEGFR1, sequence (P17948 27-1338, species assumed): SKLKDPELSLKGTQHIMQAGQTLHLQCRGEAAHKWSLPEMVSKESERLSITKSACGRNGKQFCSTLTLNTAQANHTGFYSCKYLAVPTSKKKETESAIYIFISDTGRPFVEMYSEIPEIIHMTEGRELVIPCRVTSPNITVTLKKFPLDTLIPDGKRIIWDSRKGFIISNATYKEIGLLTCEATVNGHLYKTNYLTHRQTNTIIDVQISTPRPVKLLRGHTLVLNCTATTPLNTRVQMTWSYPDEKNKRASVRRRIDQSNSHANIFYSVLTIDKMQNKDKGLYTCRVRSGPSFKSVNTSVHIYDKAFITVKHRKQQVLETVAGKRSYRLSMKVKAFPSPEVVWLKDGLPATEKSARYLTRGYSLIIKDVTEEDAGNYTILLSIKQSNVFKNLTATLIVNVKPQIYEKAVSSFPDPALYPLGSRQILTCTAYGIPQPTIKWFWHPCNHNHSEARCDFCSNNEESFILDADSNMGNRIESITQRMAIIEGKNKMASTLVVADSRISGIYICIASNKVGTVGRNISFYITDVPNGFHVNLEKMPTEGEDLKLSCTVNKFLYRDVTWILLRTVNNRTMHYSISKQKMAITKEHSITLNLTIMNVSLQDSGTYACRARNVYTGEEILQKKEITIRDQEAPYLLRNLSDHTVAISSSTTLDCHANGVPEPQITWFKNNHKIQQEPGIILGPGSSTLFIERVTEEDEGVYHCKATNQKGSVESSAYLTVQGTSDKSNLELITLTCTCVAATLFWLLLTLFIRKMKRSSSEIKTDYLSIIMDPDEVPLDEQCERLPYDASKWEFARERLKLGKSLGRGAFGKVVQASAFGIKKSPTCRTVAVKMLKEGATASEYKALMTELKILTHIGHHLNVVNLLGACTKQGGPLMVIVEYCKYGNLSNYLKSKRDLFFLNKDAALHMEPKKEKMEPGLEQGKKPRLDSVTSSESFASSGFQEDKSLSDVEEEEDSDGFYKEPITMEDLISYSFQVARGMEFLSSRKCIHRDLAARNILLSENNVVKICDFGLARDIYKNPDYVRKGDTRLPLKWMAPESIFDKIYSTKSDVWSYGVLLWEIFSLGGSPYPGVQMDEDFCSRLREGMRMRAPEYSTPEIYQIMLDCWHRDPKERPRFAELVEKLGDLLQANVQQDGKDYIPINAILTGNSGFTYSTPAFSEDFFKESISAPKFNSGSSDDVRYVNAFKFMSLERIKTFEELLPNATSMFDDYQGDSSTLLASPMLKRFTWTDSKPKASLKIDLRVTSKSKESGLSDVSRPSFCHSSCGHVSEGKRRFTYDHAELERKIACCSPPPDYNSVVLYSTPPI

human VEGF receptor (VEGFR-2), sequence (P35968 786-1356): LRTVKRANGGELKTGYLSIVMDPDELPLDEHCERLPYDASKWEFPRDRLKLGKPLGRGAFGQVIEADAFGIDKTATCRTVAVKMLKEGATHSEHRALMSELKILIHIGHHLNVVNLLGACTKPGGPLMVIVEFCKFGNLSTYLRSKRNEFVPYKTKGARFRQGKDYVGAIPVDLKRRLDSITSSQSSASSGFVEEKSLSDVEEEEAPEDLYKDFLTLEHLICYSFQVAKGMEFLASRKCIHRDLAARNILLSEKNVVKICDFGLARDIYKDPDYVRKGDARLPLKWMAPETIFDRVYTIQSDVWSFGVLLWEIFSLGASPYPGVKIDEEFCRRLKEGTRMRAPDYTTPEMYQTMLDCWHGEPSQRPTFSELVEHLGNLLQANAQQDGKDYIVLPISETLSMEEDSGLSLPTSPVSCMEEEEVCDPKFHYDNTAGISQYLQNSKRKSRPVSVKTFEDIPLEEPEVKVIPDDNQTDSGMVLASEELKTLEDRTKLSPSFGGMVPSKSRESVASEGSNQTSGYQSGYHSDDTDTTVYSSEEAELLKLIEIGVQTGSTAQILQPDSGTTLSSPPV
VEGFR2, sequence (P35968 20-1356): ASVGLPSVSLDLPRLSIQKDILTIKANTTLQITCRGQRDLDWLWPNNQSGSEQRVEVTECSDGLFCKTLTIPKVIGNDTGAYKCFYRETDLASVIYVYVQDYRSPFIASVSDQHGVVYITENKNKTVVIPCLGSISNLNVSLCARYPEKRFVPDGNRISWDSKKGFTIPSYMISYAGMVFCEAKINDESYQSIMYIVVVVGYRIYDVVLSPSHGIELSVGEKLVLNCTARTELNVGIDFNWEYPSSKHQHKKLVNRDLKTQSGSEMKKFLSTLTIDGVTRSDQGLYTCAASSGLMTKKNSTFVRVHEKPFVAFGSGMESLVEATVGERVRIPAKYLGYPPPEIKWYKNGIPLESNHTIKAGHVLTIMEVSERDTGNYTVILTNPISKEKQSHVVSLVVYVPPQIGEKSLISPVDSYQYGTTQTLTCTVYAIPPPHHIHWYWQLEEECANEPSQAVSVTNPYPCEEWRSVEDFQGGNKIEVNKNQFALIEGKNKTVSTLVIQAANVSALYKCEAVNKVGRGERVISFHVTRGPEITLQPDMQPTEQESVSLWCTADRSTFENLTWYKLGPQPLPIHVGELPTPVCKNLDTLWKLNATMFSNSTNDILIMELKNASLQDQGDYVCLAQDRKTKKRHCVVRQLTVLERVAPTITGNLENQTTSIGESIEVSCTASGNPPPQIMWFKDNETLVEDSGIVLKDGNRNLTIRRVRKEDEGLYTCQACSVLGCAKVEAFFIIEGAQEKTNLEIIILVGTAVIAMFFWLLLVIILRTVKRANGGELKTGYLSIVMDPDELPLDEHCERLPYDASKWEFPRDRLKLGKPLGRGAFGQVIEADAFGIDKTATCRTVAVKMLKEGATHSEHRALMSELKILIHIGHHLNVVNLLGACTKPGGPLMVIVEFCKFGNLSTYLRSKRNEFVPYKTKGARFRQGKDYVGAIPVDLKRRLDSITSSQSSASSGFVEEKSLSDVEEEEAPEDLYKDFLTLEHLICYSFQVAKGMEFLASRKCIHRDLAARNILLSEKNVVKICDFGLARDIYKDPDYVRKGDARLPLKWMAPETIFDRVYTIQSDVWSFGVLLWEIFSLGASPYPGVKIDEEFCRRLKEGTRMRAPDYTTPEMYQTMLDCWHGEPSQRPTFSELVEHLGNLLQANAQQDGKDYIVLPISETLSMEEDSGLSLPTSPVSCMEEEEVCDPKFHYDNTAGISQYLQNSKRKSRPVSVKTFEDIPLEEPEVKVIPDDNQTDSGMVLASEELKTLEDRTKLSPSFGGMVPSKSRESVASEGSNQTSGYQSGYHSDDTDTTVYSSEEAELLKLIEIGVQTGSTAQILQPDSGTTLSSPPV
PDGFRβ, sequence (P09619 33-1106, species assumed): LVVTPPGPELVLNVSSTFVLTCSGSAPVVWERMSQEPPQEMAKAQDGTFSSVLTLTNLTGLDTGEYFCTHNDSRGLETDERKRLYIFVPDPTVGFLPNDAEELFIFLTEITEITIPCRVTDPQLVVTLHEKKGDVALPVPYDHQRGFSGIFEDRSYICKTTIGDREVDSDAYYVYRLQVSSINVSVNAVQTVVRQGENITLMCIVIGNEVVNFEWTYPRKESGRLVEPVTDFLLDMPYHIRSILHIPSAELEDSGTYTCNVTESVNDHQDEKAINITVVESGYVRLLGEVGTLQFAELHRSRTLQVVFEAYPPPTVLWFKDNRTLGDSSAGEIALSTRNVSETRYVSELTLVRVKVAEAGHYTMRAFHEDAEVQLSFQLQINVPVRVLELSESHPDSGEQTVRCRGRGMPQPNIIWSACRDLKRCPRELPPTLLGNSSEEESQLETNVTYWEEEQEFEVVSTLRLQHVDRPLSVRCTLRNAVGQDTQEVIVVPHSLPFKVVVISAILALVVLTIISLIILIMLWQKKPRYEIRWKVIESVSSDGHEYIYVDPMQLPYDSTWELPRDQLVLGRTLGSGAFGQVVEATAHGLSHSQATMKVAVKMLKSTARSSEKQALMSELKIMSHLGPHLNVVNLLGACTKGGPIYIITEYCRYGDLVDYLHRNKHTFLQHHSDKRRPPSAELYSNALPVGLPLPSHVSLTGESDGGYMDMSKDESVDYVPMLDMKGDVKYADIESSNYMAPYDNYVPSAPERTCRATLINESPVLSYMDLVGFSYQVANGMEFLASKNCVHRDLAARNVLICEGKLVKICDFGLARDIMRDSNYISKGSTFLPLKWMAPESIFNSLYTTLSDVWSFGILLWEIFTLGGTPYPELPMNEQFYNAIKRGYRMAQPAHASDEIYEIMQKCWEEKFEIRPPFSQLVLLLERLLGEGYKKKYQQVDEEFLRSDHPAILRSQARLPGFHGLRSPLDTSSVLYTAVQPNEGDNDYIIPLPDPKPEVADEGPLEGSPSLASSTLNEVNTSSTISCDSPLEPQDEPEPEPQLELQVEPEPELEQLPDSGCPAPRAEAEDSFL

| IC50 [1] | IC50 [2] | In Vivo Rabbit Eye VEGF Permeability [3] | IC50 [4] | IC50 [5] | Structure (SMILES) |
| --- | --- | --- | --- | --- | --- |
| 0.0008 µM | 0.011 µM | Efficacious | 0.003 µM | 0.006 µM | COC(=O)CNCCCNC(=O)c1cc2nccc(Oc3ccc(NC(=O)Nc4cc(C)ccc4F)cc3)c2s1 [Example 18, methyl ({3-[({7-[4-({[(2-fluoro-5-methylphenyl)amino]carbonyl}amino)phenoxy]thieno[3,2-b]pyridin-2-yl}carbonyl)amino]propyl}amino)acetate] |
| 0.328 µM | – | Efficacious | 0.019 µM | – | CCNC(=O)[C@H](CCC(=O)O)NC(=O)c1cc2nccc(Oc3ccc(NC(=O)Nc4cc(C)ccc4F)c(F)c3)c2s1 [Example 46, (4S)-5-(ethylamino)-4-[({7-[3-fluoro-4-({[(2-fluoro-5-methylphenyl)amino]carbonyl}amino)phenoxy]thieno[3,2-b]pyridin-2-yl}carbonyl)amino]-5-oxopentanoic acid] |
| 0.007 µM | – | Efficacious | 0.011 µM | 0.007 µM | Cc1ccc(F)c(NC(=O)Nc2ccc(Oc3ccnc4cc(C(=O)NCCCN5CCOCC5)sc34)cc2F)c1 [Example 55, 7-[3-fluoro-4-({[(2-fluoro-5-methylphenyl)amino]carbonyl}amino)phenoxy]-N-(3-morpholin-4-ylpropyl)thieno[3,2-b]pyridine-2-carboxamide] |
| 0.029 µM | – | efficacious | 0.02 µM | 0.016 µM | Cc1ccc(F)c(NC(=O)Nc2ccc(Oc3ccnc4cc(C(=O)O)sc34)cc2)c1 [Compound F2, 7-[4-({[(2-Fluoro-5-methylphenyl)amino]carbonyl}amino)phenoxy]thieno[3,2-b]pyridine-2-carboxylic acid] |
